Assay results published in PubChem BioAssay AID328 (DTP/NCI, 2004).
“And” between values parts separate entries of the source, which are not always exact repeats. Equal values may be shown once. Inconclusive results and toxic doses are left out.

Test system: BDF1 mice, P388 leukemia ip, median survival T/C
Test: NCI In Vivo Anticancer Drug Screen. Data for tumor model P388 Leukemia (intraperitoneal) in B6D2F1 (BDF1) mice
Settings: endpoint: median survival time, higher = longer survival
Procedure, shortened: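 Read-out is survival of treated animals expressed relative to the vehicle group, as a T/C ratio.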

[1] = dose: 12.5 mg/kg/injection, schedule: Q01DX009 (ip), vehicle: Klucel (hydroxypropylcellulose) (HPC)
[2] = dose: 25.0 mg/kg/injection, schedule: Q01DX009 (ip), vehicle: Klucel (hydroxypropylcellulose) (HPC)
[3] = dose: 25.0 mg/kg/injection, schedule: Q04DX003 (ip), vehicle: Klucel (hydroxypropylcellulose) (HPC)
[4] = dose: 50.0 mg/kg/injection, schedule: Q01DX009 (ip), vehicle: Klucel (hydroxypropylcellulose) (HPC)
[5] = dose: 50.0 mg/kg/injection, schedule: Q04DX003 (ip), vehicle: Klucel (hydroxypropylcellulose) (HPC)
[6] = dose: 6.25 mg/kg/injection, schedule: Q01DX009 (ip), vehicle: Klucel (hydroxypropylcellulose) (HPC)
[7] = dose: 100.0 mg/kg/injection, schedule: Q01DX009 (ip), vehicle: Klucel (hydroxypropylcellulose) (HPC)
[8] = dose: 50.0 mg/kg/injection, schedule: Q01DX009 (ip), vehicle: saline with Tween-80
[9] = dose: 100.0 mg/kg/injection, schedule: Q01DX009 (ip), vehicle: saline with Tween-80
[10] = dose: 200.0 mg/kg/injection, schedule: Q01DX009 (ip), vehicle: saline with Tween-80
[11] = dose: 100.0 mg/kg/injection, schedule: Q04DX003 (ip), vehicle: Klucel (hydroxypropylcellulose) (HPC)
[12] = dose: 200.0 mg/kg/injection, schedule: Q04DX003 (ip), vehicle: Klucel (hydroxypropylcellulose) (HPC)
[13] = dose: 1.56 mg/kg/injection, schedule: Q01DX009 (ip), vehicle: saline

Structure (SMILES): CS(=O)(=O)OCCC(=O)NCNC(=O)CCOS(C)(=O)=O
- T/C (dose: 9.0 mg/kg/injection, schedule: Q04DX003 (ip), vehicle: Klucel (hydroxypropylcellulose) (HPC)): 100 % of control
- T/C (dose: 12.0 mg/kg/injection, schedule: Q04DX003 (ip), vehicle: Klucel (hydroxypropylcellulose) (HPC)): 113 % of control
- T/C [1]: 150 % of control
- T/C (dose: 13.0 mg/kg/injection, schedule: Q04DX003 (ip), vehicle: Klucel (hydroxypropylcellulose) (HPC)): 113 % of control
- T/C (dose: 22.0 mg/kg/injection, schedule: Q01DX009 (ip), vehicle: Klucel (hydroxypropylcellulose) (HPC)): 156 % of control
- T/C [2]: 172 % of control
- T/C [3]: 163 % of control
- T/C (dose: 33.0 mg/kg/injection, schedule: Q01DX009 (ip), vehicle: Klucel (hydroxypropylcellulose) (HPC)): 176 % of control
- T/C (dose: 33.0 mg/kg/injection, schedule: Q04DX003 (ip), vehicle: Klucel (hydroxypropylcellulose) (HPC)): 155 % of control and 171 % of control
- T/C [4]: 168 % of control and 218 % of control
- T/C [5]: 181 % of control and 185 % of control and 195 % of control
- T/C (dose: 75.0 mg/kg/injection, schedule: Q01DX009 (ip), vehicle: Klucel (hydroxypropylcellulose) (HPC)): 124 % of control
- T/C (dose: 75.0 mg/kg/injection, schedule: Q04DX003 (ip), vehicle: Klucel (hydroxypropylcellulose) (HPC)): 190 % of control and 214 % of control

Structure (SMILES): COc1ccc(C(=O)/C=C/c2ccccc2)c(O)c1CC=C(C)C (tested in a mixture with another compound)
- T/C (dose: 3.12 mg/kg/injection, schedule: Q01DX009 (ip), vehicle: Klucel (hydroxypropylcellulose) (HPC)): 90 % of control
- T/C [6]: 102 % of control
- T/C [1]: 107 % of control
- T/C [2]: 109 % of control
- T/C [4]: 91 % of control
- T/C [7]: 92 % of control

Structure (SMILES): O=C(NCCCCCCCCCCNC(=O)N1CC1)N1CC1
- T/C (dose: 3.0 mg/kg/injection, schedule: Q04DX003 (ip), vehicle: saline with Tween-80): 154 % of control
- T/C (dose: 4.5 mg/kg/injection, schedule: Q04DX003 (ip), vehicle: saline with Tween-80): 241 % of control

Structure (SMILES): COc1cc2c(cc1Oc1c(Oc3c(O)c(OC)cc4c3C(CC(C)C)N(C)CC4)c(OC)cc3c1C(CC(C)C)N(C)CC3)C(CC(C)C)N(C)CC2 (configuration not stated)
- T/C (dose: 12.5 mg/kg/injection, schedule: Q01DX010 (ip), vehicle: saline): 95 % of control
- T/C (dose: 25.0 mg/kg/injection, schedule: Q01DX010 (ip), vehicle: saline): 90 % of control
- T/C (dose: 50.0 mg/kg/injection, schedule: Q01DX010 (ip), vehicle: saline): 95 % of control

Structure (SMILES): O.[Cu].[Cu]
- T/C [6]: 90 % of control
- T/C (dose: 6.25 mg/kg/injection, schedule: Q04DX003 (ip), vehicle: Klucel (hydroxypropylcellulose) (HPC)): 90 % of control
- T/C [1]: 110 % of control
- T/C (dose: 12.5 mg/kg/injection, schedule: Q04DX003 (ip), vehicle: Klucel (hydroxypropylcellulose) (HPC)): 90 % of control
- T/C [2]: 95 % of control
- T/C [3]: 118 % of control

Structure (SMILES): O=C(CC(Cl)(C(F)(F)F)C(F)(F)F)c1cccc([N+](=O)[O-])c1
- T/C (dose: 12.5 mg/kg/injection, schedule: Q01DX001 (ip), vehicle: saline with Tween-80): 113 % of control
- T/C (dose: 25.0 mg/kg/injection, schedule: Q01DX001 (ip), vehicle: saline with Tween-80): 109 % of control
- T/C (dose: 50.0 mg/kg/injection, schedule: Q01DX001 (ip), vehicle: saline with Tween-80): 109 % of control

Structure (SMILES): CC1C(=O)COCC1=O
- T/C (dose: 100.0 mg/kg/injection, schedule: Q01DX001 (ip), vehicle: saline with Tween-80): 102 % of control
- T/C (dose: 200.0 mg/kg/injection, schedule: Q01DX001 (ip), vehicle: saline with Tween-80): 101 % of control
- T/C (dose: 400.0 mg/kg/injection, schedule: Q01DX001 (ip), vehicle: saline with Tween-80): 98 % of control

Structure (SMILES): CC(C)(O)c1ccccc1S(=O)c1ccc(Cl)cc1 (configuration not stated)
- T/C [8]: 100 % of control
- T/C [9]: 101 % of control
- T/C [10]: 99 % of control

Structure (SMILES): C(#C[P+]1(c2ccccc2)C=C(c2ccccc2)OC(c2ccccc2)=C1)c1ccccc1
- T/C (dose: 50.0 mg/kg/injection, schedule: Q01DX005 (ip), vehicle: saline with Tween-80): 110 % of control

Structure (SMILES): NC(=S)NNC(=O)/C=C/c1ccccc1
- T/C (dose: 100.0 mg/kg/injection, schedule: Q01DX001 (ip), vehicle: saline sonified): 104 % of control
- T/C (dose: 200.0 mg/kg/injection, schedule: Q01DX001 (ip), vehicle: saline sonified): 100 % of control
- T/C (dose: 400.0 mg/kg/injection, schedule: Q01DX001 (ip), vehicle: saline sonified): 95 % of control

Structure (SMILES): Cc1ccc2c(c1)Oc1ccccc1N=C2
- T/C [8]: 97 % of control
- T/C [9]: 103 % of control
- T/C [10]: 97 % of control

Structure (SMILES): S=C1N(c2ccccc2)CN(C2CCCCC2)CN1c1ccccc1
- T/C [8]: 89 % of control
- T/C [9]: 90 % of control
- T/C [10]: 89 % of control

Structure (SMILES): O=C(O)CCCCCNC(=O)c1ccccc1
- T/C [5]: 118 % of control
- T/C (dose: 100.0 mg/kg/injection, schedule: Q01DX001 (ip), vehicle: Klucel (hydroxypropylcellulose) (HPC)): 100 % of control
- T/C [11]: 100 % of control
- T/C (dose: 200.0 mg/kg/injection, schedule: Q01DX001 (ip), vehicle: Klucel (hydroxypropylcellulose) (HPC)): 104 % of control
- T/C [12]: 100 % of control
- T/C (dose: 400.0 mg/kg/injection, schedule: Q01DX001 (ip), vehicle: Klucel (hydroxypropylcellulose) (HPC)): 100 % of control

Structure (SMILES): CC(=O)CC(c1ccc2c(c1)OCO2)c1c(O)c2ccccc2oc1=O (configuration not stated)
- T/C (dose: 0.39 mg/kg/injection, schedule: Q01DX009 (ip), vehicle: saline): 88 % of control
- T/C (dose: 0.78 mg/kg/injection, schedule: Q01DX009 (ip), vehicle: saline): 106 % of control
- T/C (dose: 0.78 mg/kg/injection, schedule: Q04DX003 (ip), vehicle: saline): 89 % of control
- T/C [13]: 106 % of control
- T/C (dose: 1.56 mg/kg/injection, schedule: Q04DX003 (ip), vehicle: saline): 98 % of control
- T/C (dose: 3.12 mg/kg/injection, schedule: Q04DX003 (ip), vehicle: saline): 89 % of control
- T/C (dose: 6.25 mg/kg/injection, schedule: Q04DX003 (ip), vehicle: saline): 89 % of control
- T/C (dose: 12.5 mg/kg/injection, schedule: Q04DX003 (ip), vehicle: saline): 102 % of control

Structure (SMILES): CC(C)NC(=O)c1ccccc1Sc1ccccc1C(=O)NC(C)C
- T/C (dose: 100.0 mg/kg/injection, schedule: Q04DX003 (ip), vehicle: saline with Tween-80): 105 % of control
- T/C (dose: 200.0 mg/kg/injection, schedule: Q04DX003 (ip), vehicle: saline with Tween-80): 105 % of control
- T/C (dose: 400.0 mg/kg/injection, schedule: Q04DX003 (ip), vehicle: saline with Tween-80): 99 % of control

Structure (SMILES): Nc1ccc(Nc2ccccc2)c(S(=O)(=O)O)c1
- T/C (dose: 50.0 mg/kg/injection, schedule: Q01DX009 (ip), vehicle: saline): 116 % of control
- T/C (dose: 100.0 mg/kg/injection, schedule: Q01DX009 (ip), vehicle: saline): 100 % of control
- T/C (dose: 200.0 mg/kg/injection, schedule: Q01DX009 (ip), vehicle: saline): 108 % of control
- T/C (dose: 400.0 mg/kg/injection, schedule: Q01DX009 (ip), vehicle: saline): 104 % of control and 116 % of control

Structure (SMILES): SCc1ccccn1
- T/C (dose: 62.5 mg/kg/injection, schedule: Q01DX010 (ip), vehicle: carboxymethylcellulose (CMC)): 110 % of control
- T/C (dose: 125.0 mg/kg/injection, schedule: Q01DX010 (ip), vehicle: carboxymethylcellulose (CMC)): 110 % of control
- T/C (dose: 250.0 mg/kg/injection, schedule: Q01DX010 (ip), vehicle: carboxymethylcellulose (CMC)): 120 % of control

Structure (SMILES): C[C@]12CCC(=O)C=C1CC[C@H]1[C@@H]3CCC(=O)O[C@@]3(C)CC(=O)[C@@]12F
- T/C [7]: 111 % of control
- T/C [11]: 90 % of control
- T/C (dose: 200.0 mg/kg/injection, schedule: Q01DX009 (ip), vehicle: Klucel (hydroxypropylcellulose) (HPC)): 96 % of control
- T/C [12]: 109 % of control
- T/C (dose: 400.0 mg/kg/injection, schedule: Q01DX009 (ip), vehicle: Klucel (hydroxypropylcellulose) (HPC)): 100 % of control
- T/C (dose: 400.0 mg/kg/injection, schedule: Q04DX003 (ip), vehicle: Klucel (hydroxypropylcellulose) (HPC)): 86 % of control

Structure (SMILES): CCOC(C[Se][Se]CC(OCC)OCC)OCC
- T/C [13]: 99 % of control
- T/C (dose: 3.13 mg/kg/injection, schedule: Q01DX009 (ip), vehicle: saline): 102 % of control
- T/C (dose: 6.25 mg/kg/injection, schedule: Q01DX009 (ip), vehicle: saline): 102 % of control
